The numbers were not newly measured in article PMC6471197, “Biological Activity and In Silico Study of 3-Modified Derivatives of Betulin and Betulinic Aldehyde” (International Journal of Molecular Sciences, 2019), which cites them from elsewhere.

≈ marks a conversion by molar mass, not a printed value.

The subject of series [1] is PC-3, Jurkat, HeLa, HepG2 and HT-29. Further details: method as in PMID 20494586. Particulars: range over PC-3, Jurkat, HepG2, HT-29, read-out: IC50 in the tested cancer cell lines; cited from earlier work.
Details of series [2]: method as in PMID 17851638. The note with it: cited from earlier work.
Series [3] relates to MCF-7/ADR cells (multidrug-resistant breast cancer). Further details: method as in PMID 25817774. Particulars: read-out: IC50 towards MCF-7/ADR cells; cited from earlier work.
The subject of the next series is lung A549 cell line. Further details: method as in PMID 20460723. Particulars: cited from earlier work.

In the case of `C=C(C)[C@@H]1CC[C@]2(C(=O)O)CC[C@]3(C)[C@H](CC[C@@H]4[C@@]5(C)CC[C@H](O)C(C)(C)[C@@H]5CC[C@]43C)[C@@H]12` [betulinic acid], the IC50 was 12.8 to 36.4 µM in series [1] and 38.5 µM in series [3]. Moreover, in series [2], the water solubility was under 1 µM. In addition, in the series with lung A549 cell line, the “IC50 against lung A549 cell line” value is 8.4 µg/mL (≈ 18.4 µM).
